Experiments:
[1] = system: MCF7; assay: Cytotoxicity against human MCF7 cells expressing VEGFR2 and wild type BRAF measured after 48 hrs by sulforhodamine B assay; format: functional, cell-based; conditions: MCF7, 48 h
[2] = molecular target: Vascular endothelial growth factor receptor 2 (Homo sapiens, UniProt P35968); assay: Inhibition of human N-terminal GST tagged VEGFR-2 expressed in baculovirus infected Sf9 cells using poly (Glu,Tyr) 4:1 as substrate in presence of ATP by Kinase-Glo luminescence assay
[3] = system: T47D; assay: Cytotoxicity against human T47D cells expressing wild type BRAF measured after 48 hrs by sulforhodamine B assay; format: functional, cell-based
[4] = system: MCF7; assay: Inhibition of VEGFR2 level in human MCF7 cells at 10 uM measured after 48 hrs by ELISA relative to control; format: functional; conditions: MCF7, 48 h
[5] = molecular target: Serine/threonine-protein kinase B-raf (Homo sapiens, UniProt P15056); assay: Inhibition of human wild type BRAF by Kinase-Glo luminescence assay
Chain of Serine/threonine-protein kinase B-raf (P15056 whole entry): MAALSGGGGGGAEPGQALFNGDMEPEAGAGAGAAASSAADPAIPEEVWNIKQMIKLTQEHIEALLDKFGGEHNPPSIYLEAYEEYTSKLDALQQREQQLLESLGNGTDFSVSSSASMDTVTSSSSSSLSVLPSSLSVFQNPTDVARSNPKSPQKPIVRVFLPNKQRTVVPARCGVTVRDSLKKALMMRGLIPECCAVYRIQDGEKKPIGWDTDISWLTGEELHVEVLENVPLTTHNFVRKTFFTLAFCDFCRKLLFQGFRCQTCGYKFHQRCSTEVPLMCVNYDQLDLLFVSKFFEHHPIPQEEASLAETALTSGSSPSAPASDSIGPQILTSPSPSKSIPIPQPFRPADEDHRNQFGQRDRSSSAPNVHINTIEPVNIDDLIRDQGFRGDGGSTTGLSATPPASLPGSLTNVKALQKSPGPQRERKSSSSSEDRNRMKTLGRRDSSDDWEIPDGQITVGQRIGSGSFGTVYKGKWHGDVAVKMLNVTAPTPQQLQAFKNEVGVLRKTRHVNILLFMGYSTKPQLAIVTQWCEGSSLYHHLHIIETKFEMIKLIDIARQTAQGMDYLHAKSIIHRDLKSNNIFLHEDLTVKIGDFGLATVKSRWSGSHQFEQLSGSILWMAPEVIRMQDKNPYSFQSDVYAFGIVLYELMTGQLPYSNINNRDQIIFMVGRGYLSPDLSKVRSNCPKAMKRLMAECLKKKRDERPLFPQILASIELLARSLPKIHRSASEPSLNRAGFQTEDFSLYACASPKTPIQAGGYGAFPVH

Chain of Vascular endothelial growth factor receptor 2 (P35968 whole entry): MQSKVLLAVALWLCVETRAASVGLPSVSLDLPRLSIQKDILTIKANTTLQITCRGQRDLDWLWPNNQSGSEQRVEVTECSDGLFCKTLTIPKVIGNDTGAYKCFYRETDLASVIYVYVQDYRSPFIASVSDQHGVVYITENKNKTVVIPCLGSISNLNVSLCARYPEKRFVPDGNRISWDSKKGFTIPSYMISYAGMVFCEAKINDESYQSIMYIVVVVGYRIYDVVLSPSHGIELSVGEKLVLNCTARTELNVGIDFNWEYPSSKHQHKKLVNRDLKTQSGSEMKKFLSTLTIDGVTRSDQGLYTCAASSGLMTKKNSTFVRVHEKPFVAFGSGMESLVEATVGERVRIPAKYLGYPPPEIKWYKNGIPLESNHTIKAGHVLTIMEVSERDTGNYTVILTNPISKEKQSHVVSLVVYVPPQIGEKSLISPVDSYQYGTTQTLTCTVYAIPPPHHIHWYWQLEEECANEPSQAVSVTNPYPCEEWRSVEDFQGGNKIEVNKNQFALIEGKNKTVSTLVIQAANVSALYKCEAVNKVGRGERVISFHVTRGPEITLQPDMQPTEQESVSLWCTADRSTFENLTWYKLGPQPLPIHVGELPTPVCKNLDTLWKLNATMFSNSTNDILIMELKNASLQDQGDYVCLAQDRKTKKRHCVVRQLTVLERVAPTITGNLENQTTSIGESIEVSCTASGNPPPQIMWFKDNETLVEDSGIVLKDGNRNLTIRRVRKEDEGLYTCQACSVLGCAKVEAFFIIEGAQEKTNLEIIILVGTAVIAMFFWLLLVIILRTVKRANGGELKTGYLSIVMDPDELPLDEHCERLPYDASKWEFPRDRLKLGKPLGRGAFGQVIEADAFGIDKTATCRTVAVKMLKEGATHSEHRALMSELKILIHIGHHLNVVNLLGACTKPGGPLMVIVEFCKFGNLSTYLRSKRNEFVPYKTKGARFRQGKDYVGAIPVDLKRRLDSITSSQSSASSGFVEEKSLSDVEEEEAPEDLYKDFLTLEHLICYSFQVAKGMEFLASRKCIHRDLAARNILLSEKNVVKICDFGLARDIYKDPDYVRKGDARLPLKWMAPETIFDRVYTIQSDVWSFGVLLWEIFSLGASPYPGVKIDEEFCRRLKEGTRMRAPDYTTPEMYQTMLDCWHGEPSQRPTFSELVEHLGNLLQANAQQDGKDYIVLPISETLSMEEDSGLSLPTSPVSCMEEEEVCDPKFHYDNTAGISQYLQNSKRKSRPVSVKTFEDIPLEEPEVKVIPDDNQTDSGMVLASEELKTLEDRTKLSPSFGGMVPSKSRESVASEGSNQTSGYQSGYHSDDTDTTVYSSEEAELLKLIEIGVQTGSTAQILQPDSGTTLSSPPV

Compound	IC50 [2] [µM]	IC50 [5] [µM]	IC50 [1] [µM]	IC50 [3] [µM]	inhibition at 10 µM [4] [%]
CCOC(=O)c1ccc(Nc2ccnc(SCC(=O)c3ccc(OC)cc3)n2)cc1	0.19	0.41	32.1	43.4	12
O=C(O)c1ccc(Nc2ccnc(SCC(=O)c3ccc(Br)cc3)n2)cc1	> 10	–	81.2	–	–
CCOC(=O)c1ccc(Nc2ccnc(SCC(=O)c3ccc(C(F)(F)F)cc3)n2)cc1	1.96	–	19.6	32.1	76
CC(=O)c1cccc(Nc2ccnc(SCC(=O)c3ccc(Cl)cc3)n2)c1	0.48	–	53.6	33	–
COc1ccc(C(=O)CSc2nccc(Nc3ccc(C(=O)O)cc3)n2)cc1	1.43	–	37.8	–	40
CCOC(=O)c1ccc(Nc2ccnc(SCC(=O)c3ccc(Cl)cc3)n2)cc1	> 10	–	20	–	–
CNC(=O)c1cc(Oc2ccc(NC(=O)Nc3ccc(Cl)c(C(F)(F)F)c3)cc2)ccn1 [SORAFENIB]	–	–	4.33	1.6	90

The next lines start with results.

IC50 [2] [µM]	IC50 [5] [µM]	Compound	IC50 [1] [µM]	IC50 [3] [µM]	inhibition at 10 µM [4] [%]
1.1	–	N#Cc1ccc(C(=O)CSc2nccc(Nc3ccc(N4CCOCC4)cc3)n2)cc1	69	–	–
0.49	–	COc1ccc(C(=O)CSc2nccc(Nc3ccc(C(C)=O)cc3)n2)cc1	80.3	–	–
0.34	–	CCOC(=O)c1ccc(Nc2ccnc(SCC(=O)c3ccc(-c4ccccc4)cc3)n2)cc1	68.5	–	–
> 10	–	O=C(O)c1ccc(Nc2ccnc(SCC(=O)c3ccc([N+](=O)[O-])cc3)n2)cc1	53.2	–	–
0.17	0.37	O=C(O)c1ccc(Nc2ccnc(SCC(=O)c3ccc(Cl)cc3)n2)cc1	37.2	–	35
0.57	–	O=C(O)c1ccc(Nc2ccnc(SCC(=O)c3ccc(-c4ccccc4)cc3)n2)cc1	49	–	–
0.12	1.7	N#Cc1ccc(C(=O)CSc2nccc(Nc3ccc(C(=O)O)cc3)n2)cc1	17.2	–	77
